Assay: Static contact angle of liquid monomer on coated substrate (goniometer)
Format: physicochemical
Procedure: Contact angle and aspect ratio analysis: Contact angle measurements were performed using a Ramé-Hart Model 500 contact angle goniometer. A pipette was used to dispense 5 μL of liquid HEMA, 4VP, and DVB onto the substrate for static contact angle measurements.

[1] = 5 μL liquid monomer on flattened PPFDA base layer, n=5

Compound | contact angle [1] | contact angle (5 μL liquid monomer on PDVB thin film coated substrate, n=4)
divinylbenzene [DVB] | 86.5±1.6 ° | –
C=Cc1ccncc1 [4VP, 4-vinylpyridine] | 80.6±1.7 ° | –
C=C(C)C(=O)OCCO [HEMA, 2-hydroxyethyl methacrylate] | 86.4±1.0 ° | 18.5±1.1 °

Reference: patent US20250073169A1, “POLYMER NANOPARTICLES VIA CONDENSED DROPLET POLYMERIZATION” (CORNELL UNIVERSITY, priority 2021, published 2025)
